± gives the standard deviation of the averaged measurements.
Assays:
Assay in all cases: level (log10 ratio to DMSO vehicle control); higher = higher biomarker level / cell amount than vehicle control
Conditions in all cases: in DMSO
[1] = compound: O=C(O)C=CC(F)(C(F)(F)F)C(F)(F)F [3-(Perfluoroisopropyl)-2-propenoic acid]
Method: (§1)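 BioMAP Diversity Plus panel of 12 human primary cell co-culture systems (3C, 4H, LPS, SAg, BT, BF4T, BE3C, CASM3C, HDF3CGF, KF3CT, MyoF, Mphg). Compounds were added 1 h before stimulation and left for 24 h (MyoF 48 h; BT 72 h for soluble read-outs or 6 d for IgG). Biomarkers were read by ELISA, cytotoxicity by SRB, PBMC viability and proliferation by Alamar Blue. Each well value was divided by the mean of 8 DMSO control wells on the same plate and log10 transformed; duplicate blinded samples were tested at 4 concentrations.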

[2] = compound: COC(=O)C(F)(F)C(F)(F)OC(F)(C(F)(F)F)C(F)(F)OC(F)=C(F)F [Methyl perfluoro(3-(1-ethenyloxypropan-2-yloxy)propanoate)]
Method: as §1

Nonafluoropentanamide = compound: NC(=O)C(F)(F)C(F)(F)C(F)(F)C(F)(F)F [Nonafluoropentanamide]
Method: as §1

Hexafluoroamylene glycol = compound: OCC(F)(F)C(F)(F)C(F)(F)CO [Hexafluoroamylene glycol]
Method: as §1

[3] = compound: O=S(=O)(O)C(F)(F)C(F)(F)C(F)(F)C(F)(F)C(F)(F)C(F)(F)C(F)(F)C(F)(F)C(F)(F)C(F)(F)F [Sodium perfluorodecanesulfonate]
Method: as §1

[4] = compound: O=S(=O)(F)C(F)(F)C(F)(F)C(F)(F)C(F)(F)C(F)(F)C(F)(F)C(F)(F)C(F)(F)F [Perfluorooctanesulfonyl fluoride]
Method: as §1

Test System	level (log10) ([1]; 6700 nM)	level (log10) ([1]; 20000 nM)	level (log10) ([1]; 60000 nM)	level (log10) ([2]; 6700 nM)	level (log10) ([2]; 20000 nM)	level (log10) (Nonafluoropentanamide; 6700 nM)	level (log10) (Nonafluoropentanamide; 20000 nM)	level (log10) (Nonafluoropentanamide; 60000 nM)	level (log10) (Hexafluoroamylene glycol; 6700 nM)	level (log10) (Hexafluoroamylene glycol; 20000 nM)	level (log10) (Hexafluoroamylene glycol; 60000 nM)	level (log10) ([3]; 1500 nM)	level (log10) ([3]; 4400 nM)	level (log10) ([3]; 13000 nM)	level (log10) ([3]; 40000 nM)	level (log10) ([4]; 6700 nM)	level (log10) ([4]; 20000 nM)	level (log10) ([4]; 60000 nM)
3C:CD54/ICAM-1	-0.013 ± 0.033	-0.0185 ± 0.025	-0.003 ± 0.013	-0.02 ± 0.0042	-0.0045 ± 0.016	-0.0155 ± 0.005	-0.0025 ± 0.0092	0.005 ± 0.021	-0.01 ± 0.0085	-0.0325 ± 0.005	-0.016 ± 0.023	0.0115 ± 0.005	-0.0015 ± 0.00071	0.0115 ± 0.021	0.0145 ± 0.0078	-0.0025 ± 0.011	-0.007 ± 0.0042	0.005 ± 0.0028
3C:CD87/uPAR	0.025 ± 0.0071	0.033 ± 0.038	0.0465 ± 0.042	0.01 ± 0.041	0.031 ± 0.013	-0.037 ± 0.0085	-0.018 ± 0.016	-0.0095 ± 0.022	-0.0295 ± 0.047	-0.0235 ± 0.039	-0.0075 ± 0.029	-0.0055 ± 0.047	-0.0275 ± 0.013	-0.009 ± 0.037	-0.222 ± 0.0085	-0.0125 ± 0.012	-0.0085 ± 0.012	-0.006 ± 0.0014
3C:CXCL8/IL-8	-0.001 ± 0.038	-0.0275 ± 0.0092	0.028 ± 0.033	0.0075 ± 0.046	0.0485 ± 0.061	-0.001 ± 0.016	-0.0145 ± 0.0092	0.0345 ± 0.04	-0.0275 ± 0.069	-0.022 ± 0.042	0.012 ± 0.028	0.035 ± 0.035	0.021 ± 0.013	0.03 ± 0.017	0.0725 ± 0.013	-0.006 ± 0.0085	0.002	0.0145 ± 0.019
3C:Proliferation	-0.0185 ± 0.09	-0.002 ± 0.037	-0.0145 ± 0.049	-0.056 ± 0.048	-0.111 ± 0.0092	0.028 ± 0.018	0.016 ± 0.03	-0.0145 ± 0.021	-0.0035 ± 0.028	0.0075 ± 0.067	0.019 ± 0.03	-0.0815 ± 0.013	-0.056 ± 0.017	-0.038 ± 0.02	-0.229 ± 0.011	0.0125 ± 0.0092	0.0095 ± 0.016	0.0055 ± 0.046
3C:SRB	0.0035 ± 0.0078	0.0055 ± 0.019	0.0155 ± 0.015	0.006 ± 0.0071	0.004 ± 0.0042	-0.002 ± 0.0042	0.0005 ± 0.0035	-0.011	-0.01 ± 0.0085	-0.0035 ± 0.021	0 ± 0.021	-0.0035 ± 0.0035	-0.0155 ± 0.016	-0.04 ± 0.021	-0.191 ± 0.0028	0.0035 ± 0.00071	-0.0035 ± 0.0078	-0.003 ± 0.013
4H:CCL2/MCP-1	0.008 ± 0.025	-0.0105 ± 0.022	0.0005 ± 0.0064	-0.0055 ± 0.019	0.016 ± 0.064	-0.024 ± 0.017	-0.017	-0.004 ± 0.013	0.0255 ± 0.022	-0.02 ± 0.027	0.009 ± 0.0099	-0.0285 ± 0.0078	-0.045 ± 0.0057	-0.0725 ± 0.028	-0.05 ± 0.0057	0	-0.0195 ± 0.0035	-0.0005 ± 0.023
4H:CCL26/Eotaxin-3	-0.011 ± 0.0014	-0.011 ± 0.0014	0.016 ± 0.0085	-0.001 ± 0.016	-0.0425 ± 0.026	-0.0005 ± 0.0035	0.0195 ± 0.00071	0.066 ± 0.017	0.0655 ± 0.0021	0.0725 ± 0.015	0.0585 ± 0.0064	-0.038 ± 0.0085	-0.052 ± 0.0014	-0.0885 ± 0.037	-0.129 ± 0.063	0.001 ± 0.0028	-0.0025 ± 0.00071	0.0005 ± 0.005
4H:CD62P/P-selectin	-0.001 ± 0.02	-0.0105 ± 0.012	0.023 ± 0.0085	0.0115 ± 0.079	0.0095 ± 0.073	-0.0135 ± 0.043	-0.0075 ± 0.029	0.0075 ± 0.05	-0.029 ± 0.095	0.014 ± 0.058	-0.0385 ± 0.0021	-0.0165 ± 0.021	0.034 ± 0.018	0.064 ± 0.03	0.08 ± 0.033	0.061 ± 0.021	-0.034 ± 0.079	-0.0275 ± 0.0064
4H:CD87/uPAR	0.034 ± 0.016	0.055 ± 0.054	0.105 ± 0.027	0.0215 ± 0.019	0.047 ± 0.044	-0.032 ± 0.0071	0.0085 ± 0.005	0.009 ± 0.041	0.0015 ± 0.0021	-0.0205 ± 0.037	-0.027 ± 0.023	0.0235 ± 0.056	0.0145 ± 0.022	0.0455 ± 0.0064	0.0065 ± 0.013	0.013 ± 0.028	0.008 ± 0.033	0.001 ± 0.0042
4H:VEGFR2	-0.0145 ± 0.019	0.004 ± 0.05	0.01 ± 0.045	-0.008 ± 0.014	0.006 ± 0.034	-0.0435 ± 0.0078	-0.0135 ± 0.029	-0.015	-0.061 ± 0.023	-0.032 ± 0.013	-0.0255 ± 0.0021	0.003 ± 0.013	-0.03 ± 0.059	-0.02 ± 0.073	0.024 ± 0.047	-0.001 ± 0.03	-0.01 ± 0.021	0 ± 0.027
BE3C:Keratin 8/18	0.0015 ± 0.019	-0.0065 ± 0.012	0.002 ± 0.0028	-0.0095 ± 0.049	-0.004 ± 0.025	-0.0245 ± 0.0064	-0.035 ± 0.013	-0.026 ± 0.0099	0.002 ± 0.018	-0.0155 ± 0.013	0.002 ± 0.02	0.0095 ± 0.015	0.0065 ± 0.023	-0.0345 ± 0.012	-0.302 ± 0.0071	-0.012 ± 0.0014	-0.01 ± 0.016	-0.0105 ± 0.005
BE3C:MMP-1	0.0495 ± 0.06	0.034 ± 0.061	0.085 ± 0.0028	0.102 ± 0.025	0.176 ± 0.0092	0.003 ± 0.0071	0.052 ± 0.075	0.0795 ± 0.023	-0.009 ± 0.017	-0.03 ± 0.0057	0.015 ± 0.025	-0.0225 ± 0.053	0.0585 ± 0.059	0.239 ± 0.011	0.153 ± 0.0071	-0.0045 ± 0.00071	-0.001 ± 0.014	-0.0005 ± 0.013
BE3C:PAI-I	0.0105 ± 0.00071	-0.003 ± 0.0042	0.0065 ± 0.023	0.0185 ± 0.019	0.037 ± 0.0071	-0.087 ± 0.033	-0.137 ± 0.052	-0.117 ± 0.044	-0.0205 ± 0.0021	-0.017 ± 0.0042	0.0115 ± 0.0021	-0.0925 ± 0.036	-0.106 ± 0.022	-0.26 ± 0.058	-0.406 ± 0.013	-0.021 ± 0.0099	-0.022 ± 0.052	-0.0135 ± 0.056
BE3C:SRB	-0.0005 ± 0.005	-0.002 ± 0.0014	0.013 ± 0.021	-0.005 ± 0.0042	0.001 ± 0.0057	0.0035 ± 0.011	0.0065 ± 0.0035	-0.0005 ± 0.005	-0.002 ± 0.0014	-0.006 ± 0.0028	0.0075 ± 0.0021	0.0005 ± 0.0021	0 ± 0.0014	-0.0555 ± 0.028	-0.368 ± 0.069	-0.003 ± 0.0014	0.0005 ± 0.005	0.0045 ± 0.021
BE3C:tPA	-0.004 ± 0.045	-0.0215 ± 0.042	0.022 ± 0.0071	-0.114 ± 0.033	-0.142 ± 0.018	0.003 ± 0.0085	0.008 ± 0.017	0.0095 ± 0.012	-0.0205 ± 0.00071	-0.02 ± 0.0057	0.011 ± 0.031	0.12 ± 0.017	0.186 ± 0.0028	0.191 ± 0.013	-0.103 ± 0.0057	-0.045 ± 0.075	-0.027 ± 0.034	-0.027 ± 0.027
BE3C:uPA	-0.0045 ± 0.005	-0.001 ± 0.0057	0.0045 ± 0.0021	0.0005 ± 0.0035	0.0305 ± 0.012	0.0115 ± 0.016	0.009 ± 0.0099	0.0105 ± 0.0078	-0.0055 ± 0.0078	-0.013 ± 0.0014	-0.004	-0.027 ± 0.0057	-0.032 ± 0.034	-0.019 ± 0.017	-0.051 ± 0.027	0.0045 ± 0.0021	-0.011 ± 0.0057	0.004 ± 0.014

From the supplement of paper PMC10331698
